Results taken from PubChem BioAssay (NCI).
“And” between values parts separate entries of the source, which are not always exact repeats. Equal values may be shown once.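 Method: 48-hour compound exposure of cells in 96-well plates, five concentrations, linear interpolation of endpoints. Here, GI50 denotes the concentration required for 50% inhibition of growth. At the TGI there is no net growth.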

Experiments:
Assay in all cases: NCI anticancer screen, dose series, 48 h
NCI-H522 lung = system: NCI-H522 lung
RXF 393 renal = system: RXF 393 renal
ACHN renal = system: ACHN renal
HCT-116 colon = system: HCT-116 colon
CCRF-CEM leukemia = system: CCRF-CEM leukemia
UACC-257 melanoma = system: UACC-257 melanoma
PC-3 prostate = system: PC-3 prostate
K-562 leukemia = system: K-562 leukemia
A498 renal = system: A498 renal
IGROV1 ovarian = system: IGROV1 ovarian

| Structure (SMILES) | GI50 (NCI-H522 lung) | TGI (NCI-H522 lung) | GI50 (RXF 393 renal) | TGI (RXF 393 renal) | GI50 (ACHN renal) | TGI (ACHN renal) | GI50 (HCT-116 colon) | TGI (HCT-116 colon) | GI50 (CCRF-CEM leukemia) | TGI (CCRF-CEM leukemia) | GI50 (UACC-257 melanoma) | TGI (UACC-257 melanoma) | TGI (PC-3 prostate) | GI50 (K-562 leukemia) | TGI (K-562 leukemia) | GI50 (A498 renal) | TGI (A498 renal) | GI50 (PC-3 prostate) | GI50 (IGROV1 ovarian) | TGI (IGROV1 ovarian) |
| --- | --- | --- | --- | --- | --- | --- | --- | --- | --- | --- | --- | --- | --- | --- | --- | --- | --- | --- | --- | --- |
| O=C(CCN1CCOCC1)Nc1ccc(Cn2nnc3c2C(=O)c2nnn(Cc4ccc(NC(=O)CCN5CCOCC5)cc4)c2C3=O)cc1 | 1630 nM | 4340 nM | > 100000 nM | > 100000 nM | > 100000 nM | > 100000 nM | 384 nM | > 100000 nM | 340 nM | > 100000 nM | 1640 nM | 3570 nM | > 100000 nM | 1810 nM | > 100000 nM | > 100000 nM | > 100000 nM |  |  |  |
| FC(F)(F)c1cccc(CNC2CCN(CCc3ccccc3)CC2)c1 | 20900 nM | 44400 nM | 12900 nM | 39500 nM | 33200 nM | > 100000 nM | 22100 nM | 76700 nM | 27000 nM | 75800 nM | 17200 nM | 33400 nM | > 100000 nM | 15500 nM | 42900 nM |  |  | 32000 nM | 55900 nM | > 100000 nM |
| COc1cc(/C=C/c2cc(/C=C/c3ccc(O)c(OC)c3)n(C(=O)Nc3ccc(C)cc3)n2)ccc1O | 235 nM | 909 nM | 381 nM | 1410 nM | 396 nM | 7420 nM | 296 nM | 1530 nM |  |  | 1060 nM | 4950 nM | 2530 nM | 359 nM |  | 1430 nM | 4870 nM | 404 nM | 667 nM | 3940 nM |
| CN(C)CCCC1(c2ccc(F)cc2)OCc2cc(-c3csc4ccccc34)ccc21 (stereo unspecified) | 1650 nM | 3480 nM | 1540 nM | 2950 nM | 1640 nM | 3000 nM |  |  |  |  | 1780 nM | 3490 nM | 3290 nM | 1720 nM | 3450 nM |  |  | 1730 nM | 1350 nM | 2960 nM |
| CC(C)(C)C1CCC(O)(c2ccccc2)CC1 (stereo unspecified) |  | > 100000 nM and 55100 nM |  | > 100000 nM and 41800 nM |  | > 100000 nM and 59900 nM |  | > 100000 nM and 47900 nM |  | > 100000 nM |  | > 100000 nM and 48200 nM |  |  | > 100000 nM and 68200 nM |  | > 100000 nM and 51400 nM |  |  | > 100000 nM and 81500 nM |
| CCC12C=C(C(=O)OC)N3c4ccccc4C4CCN(CCC1)C2C43 (stereo unspecified) |  | > 100000 nM |  | > 100000 nM |  | > 100000 nM |  | > 100000 nM |  | > 100000 nM |  | > 100000 nM |  |  | > 100000 nM |  | > 100000 nM |  |  | > 100000 nM |
| C/C(=C\c1csc(C)n1)[C@@H]1C[C@@H]2O[C@]2(C)CCC[C@H](C)[C@H](O)[C@@H](C)C(=O)C(C)(C)[C@@H](O)CC(=O)N1 | 0.0757 nM | 0.19 nM |  |  | 0.324 nM | 0.478 nM | 0.0917 nM | 0.3 nM | 0.125 nM | 0.203 nM | 0.138 nM | 0.277 nM | < 0.01 nM | 0.106 nM | 0.33 nM | 0.104 nM | 0.215 nM | < 0.01 nM |  |  |
| COc1cc2c(Oc3ccc(-c4cnc(Nc5ccc(F)cc5)n(C)c4=O)cc3F)ccnc2cc1OCCCN1CCOCC1 |  |  | 759 nM | 2040 nM | 864 nM | 2150 nM | 1190 nM | 2510 nM | 3040 nM | > 100000 nM | 1100 nM | 2600 nM | 6390 nM |  |  | 950 nM | 2460 nM | 2050 nM | 646 nM | 2330 nM |
